Measured values: PubChem BioAssay (NCI)
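In this assay, cells in 96-well plates receive the compound at five concentrations for 48 hours. Endpoints are linearly interpolated between the surrounding concentrations. TGI denotes the concentration required for complete inhibition of growth.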

Legend:
Assay in all cases: NCI anticancer screen, dose series, 48 h
LOX IMVI melanoma = tested on: LOX IMVI melanoma
M14 melanoma = tested on: M14 melanoma
UACC-62 melanoma = tested on: UACC-62 melanoma
MCF7 breast = tested on: MCF7 breast
HCT-116 colon = tested on: HCT-116 colon
K-562 leukemia = tested on: K-562 leukemia
HOP-62 NSCLC = tested on: HOP-62 NSCLC
786-0 renal = tested on: 786-0 renal
MDA-N = tested on: MDA-N
SK-MEL-2 melanoma = tested on: SK-MEL-2 melanoma
KM12 colon = tested on: KM12 colon
NCI/ADR-RES ovarian = tested on: NCI/ADR-RES ovarian
SF-539 CNS = tested on: SF-539 CNS
U251 CNS = tested on: U251 CNS
SK-MEL-5 melanoma = tested on: SK-MEL-5 melanoma
MDA-MB-435 = tested on: MDA-MB-435
RXF 393 renal = tested on: RXF 393 renal
SW-620 colon = tested on: SW-620 colon
CCRF-CEM leukemia = tested on: CCRF-CEM leukemia
A549 NSCLC = tested on: A549 NSCLC
DU-145 prostate = tested on: DU-145 prostate
SK-OV-3 ovarian = tested on: SK-OV-3 ovarian
UACC-257 melanoma = tested on: UACC-257 melanoma
HT29 colon = tested on: HT29 colon
HOP-92 NSCLC = tested on: HOP-92 NSCLC
A498 renal = tested on: A498 renal
HCT-15 colon = tested on: HCT-15 colon
SF-268 CNS = tested on: SF-268 CNS
NCI-H460 lung = tested on: NCI-H460 lung
SNB-75 CNS = tested on: SNB-75 CNS
NCI-H23 lung = tested on: NCI-H23 lung
MALME-3M melanoma = tested on: MALME-3M melanoma
TK-10 renal = tested on: TK-10 renal
SF-295 CNS = tested on: SF-295 CNS
COLO 205 colon = tested on: COLO 205 colon
NCI-H226 lung = tested on: NCI-H226 lung
HS 578T breast = tested on: HS 578T breast
EKVX NSCLC = tested on: EKVX NSCLC
SNB-19 CNS = tested on: SNB-19 CNS
NCI-H522 lung = tested on: NCI-H522 lung
SN12C renal = tested on: SN12C renal
ACHN renal = tested on: ACHN renal
T-47D breast = tested on: T-47D breast
OVCAR-8 ovarian = tested on: OVCAR-8 ovarian
HL-60(TB) leukemia = tested on: HL-60(TB) leukemia
IGROV1 ovarian = tested on: IGROV1 ovarian
MOLT-4 leukemia = tested on: MOLT-4 leukemia
RPMI-8226 leukemia = tested on: RPMI-8226 leukemia
OVCAR-5 ovarian = tested on: OVCAR-5 ovarian
HCC-2998 colon = tested on: HCC-2998 colon
MDA-MB-231 breast = tested on: MDA-MB-231 breast
BT-549 breast = tested on: BT-549 breast
SR leukemia = tested on: SR leukemia
SK-MEL-28 melanoma = tested on: SK-MEL-28 melanoma
UO-31 renal = tested on: UO-31 renal
OVCAR-3 ovarian = tested on: OVCAR-3 ovarian
PC-3 prostate = tested on: PC-3 prostate
OVCAR-4 ovarian = tested on: OVCAR-4 ovarian
CAKI-1 renal = tested on: CAKI-1 renal

Question: Which results are given for `C/C(=N\NC(=S)N1CCN(c2ccccn2)CC1)c1cccc(C)n1`?
Answer: TGI (LOX IMVI melanoma): 17.8 µM; TGI (M14 melanoma): 9.23 µM; TGI (UACC-62 melanoma): 7.16 µM; TGI (MCF7 breast): 12.4 µM; TGI (HCT-116 colon): 10.5 µM; TGI (K-562 leukemia): > 38.2 µM; TGI (HOP-62 NSCLC): 20.1 µM; TGI (786-0 renal): 3.31 µM; TGI (MDA-N): 17.8 µM; TGI (SK-MEL-2 melanoma): 6.78 µM; TGI (KM12 colon): 18 µM; TGI (NCI/ADR-RES ovarian): 27.5 µM; TGI (SF-539 CNS): 6.12 µM; TGI (U251 CNS): 17.5 µM; TGI (SK-MEL-5 melanoma): 7.06 µM; TGI (MDA-MB-435): 17.4 µM; TGI (RXF 393 renal): 4.98 µM; TGI (SW-620 colon): 14.2 µM; TGI (CCRF-CEM leukemia): > 100 µM; TGI (A549 NSCLC): 18.5 µM; TGI (DU-145 prostate): 14.6 µM; TGI (SK-OV-3 ovarian): 21.4 µM; TGI (UACC-257 melanoma): 16.8 µM; TGI (HT29 colon): 14.5 µM; TGI (HOP-92 NSCLC): 14.3 µM; TGI (A498 renal): 6.33 µM; TGI (HCT-15 colon): 16 µM; TGI (SF-268 CNS): 19.9 µM; TGI (NCI-H460 lung): 11.9 µM; TGI (SNB-75 CNS): 12.5 µM; TGI (NCI-H23 lung): 21.8 µM; TGI (MALME-3M melanoma): 19.3 µM; TGI (TK-10 renal): 21.5 µM; TGI (SF-295 CNS): 12.3 µM; TGI (COLO 205 colon): 11.3 µM; TGI (NCI-H226 lung): 9.38 µM; TGI (HS 578T breast): 43.5 µM; TGI (EKVX NSCLC): 10.5 µM; TGI (SNB-19 CNS): 19.9 µM; TGI (NCI-H522 lung): 0.59 µM; TGI (SN12C renal): 21.9 µM; TGI (ACHN renal): 12.7 µM; TGI (T-47D breast): 35 µM; TGI (OVCAR-8 ovarian): 14.1 µM; TGI (HL-60(TB) leukemia): 17.6 µM; TGI (IGROV1 ovarian): 4.01 µM; TGI (MOLT-4 leukemia): 53.2 µM; TGI (RPMI-8226 leukemia): 12.6 µM; TGI (OVCAR-5 ovarian): 13.3 µM; TGI (HCC-2998 colon): 24.8 µM; TGI (MDA-MB-231 breast): 13.1 µM; TGI (BT-549 breast): 18 µM; TGI (SR leukemia): > 100 µM; TGI (SK-MEL-28 melanoma): 25.3 µM; TGI (UO-31 renal): 30.6 µM

Question: For `COc1ccc(CCCNC(=O)Cc2ccccc2CO)cc1OC`, which TGI (LOX IMVI melanoma) is on record?
Answer: > 100 µM

Question: What about the TGI (M14 melanoma) of the same compound?
Answer: > 100 µM

Question: And the TGI (UACC-62 melanoma)?
Answer: > 100 µM

Question: And the TGI (HCT-116 colon)?
Answer: > 100 µM

Question: What about the TGI (K-562 leukemia) of the same compound?
Answer: > 100 µM

Question: What about the TGI (HOP-62 NSCLC) of the same compound?
Answer: > 100 µM

Question: And the TGI (786-0 renal)?
Answer: > 100 µM

Question: What about the TGI (MDA-N) of the same compound?
Answer: > 100 µM

Question: And the TGI (SK-MEL-2 melanoma)?
Answer: > 100 µM

Question: And the TGI (KM12 colon)?
Answer: > 100 µM

Question: And the TGI (NCI/ADR-RES ovarian)?
Answer: > 100 µM

Question: And the TGI (U251 CNS)?
Answer: > 100 µM

Question: And the TGI (SK-MEL-5 melanoma)?
Answer: > 100 µM

Question: What about the TGI (MDA-MB-435) of the same compound?
Answer: > 100 µM

Question: What about the TGI (OVCAR-3 ovarian) of the same compound?
Answer: > 100 µM

Question: And the TGI (SW-620 colon)?
Answer: > 100 µM

Question: And the TGI (CCRF-CEM leukemia)?
Answer: > 100 µM

Question: And the TGI (A549 NSCLC)?
Answer: > 100 µM

Question: And the TGI (DU-145 prostate)?
Answer: > 100 µM

Question: And the TGI (UACC-257 melanoma)?
Answer: > 100 µM

Question: What about the TGI (HT29 colon) of the same compound?
Answer: > 100 µM

Question: What about the TGI (HOP-92 NSCLC) of the same compound?
Answer: > 100 µM

Question: What about the TGI (A498 renal) of the same compound?
Answer: > 100 µM

Question: And the TGI (HCT-15 colon)?
Answer: > 100 µM

Question: And the TGI (NCI-H460 lung)?
Answer: > 100 µM

Question: And the TGI (SNB-75 CNS)?
Answer: > 100 µM

Question: And the TGI (NCI-H23 lung)?
Answer: > 100 µM

Question: What about the TGI (MALME-3M melanoma) of the same compound?
Answer: > 100 µM

Question: And the TGI (TK-10 renal)?
Answer: > 100 µM

Question: What about the TGI (COLO 205 colon) of the same compound?
Answer: > 100 µM

Question: And the TGI (NCI-H226 lung)?
Answer: > 100 µM

Question: And the TGI (HS 578T breast)?
Answer: > 100 µM

Question: And the TGI (EKVX NSCLC)?
Answer: > 100 µM

Question: And the TGI (SNB-19 CNS)?
Answer: > 100 µM

Question: What about the TGI (PC-3 prostate) of the same compound?
Answer: > 100 µM

Question: What about the TGI (SN12C renal) of the same compound?
Answer: > 100 µM

Question: What about the TGI (ACHN renal) of the same compound?
Answer: > 100 µM

Question: And the TGI (T-47D breast)?
Answer: > 100 µM

Question: What about the TGI (OVCAR-8 ovarian) of the same compound?
Answer: > 100 µM

Question: And the TGI (HL-60(TB) leukemia)?
Answer: > 100 µM

Question: And the TGI (IGROV1 ovarian)?
Answer: > 100 µM

Question: And the TGI (MOLT-4 leukemia)?
Answer: > 100 µM

Question: And the TGI (OVCAR-5 ovarian)?
Answer: > 100 µM

Question: What about the TGI (HCC-2998 colon) of the same compound?
Answer: > 100 µM

Question: What about the TGI (OVCAR-4 ovarian) of the same compound?
Answer: > 100 µM

Question: What about the TGI (MDA-MB-231 breast) of the same compound?
Answer: > 100 µM

Question: And the TGI (BT-549 breast)?
Answer: > 100 µM

Question: What about the TGI (SR leukemia) of the same compound?
Answer: > 100 µM

Question: And the TGI (CAKI-1 renal)?
Answer: > 100 µM

Question: What about the TGI (SK-MEL-28 melanoma) of the same compound?
Answer: > 100 µM

Question: And the TGI (UO-31 renal)?
Answer: > 100 µM

Question: What does the source list for `CN(C)CCNC(=O)c1cccc(NC(=O)c2ccccc2)c1[N+](=O)[O-]`?
Answer: TGI (M14 melanoma): > 100 µM; TGI (UACC-62 melanoma): > 100 µM; TGI (MCF7 breast): > 100 µM; TGI (HCT-116 colon): > 100 µM; TGI (HOP-62 NSCLC): > 100 µM; TGI (786-0 renal): > 100 µM; TGI (MDA-N): > 100 µM; TGI (SK-MEL-2 melanoma): > 100 µM; TGI (KM12 colon): > 100 µM; TGI (NCI/ADR-RES ovarian): > 100 µM; TGI (U251 CNS): > 100 µM; TGI (SK-MEL-5 melanoma): > 100 µM; TGI (MDA-MB-435): > 100 µM; TGI (OVCAR-3 ovarian): 64.8 µM; TGI (SW-620 colon): > 100 µM; TGI (CCRF-CEM leukemia): > 100 µM; TGI (A549 NSCLC): > 100 µM; TGI (SK-OV-3 ovarian): > 100 µM; TGI (UACC-257 melanoma): > 100 µM; TGI (HT29 colon): > 100 µM; TGI (A498 renal): > 100 µM; TGI (HCT-15 colon): > 100 µM; TGI (SF-268 CNS): > 100 µM; TGI (NCI-H460 lung): > 100 µM; TGI (SNB-75 CNS): > 100 µM; TGI (NCI-H23 lung): > 100 µM; TGI (MALME-3M melanoma): 27.3 µM; TGI (TK-10 renal): > 100 µM; TGI (SF-295 CNS): > 100 µM; TGI (COLO 205 colon): > 100 µM; TGI (NCI-H226 lung): > 100 µM; TGI (HS 578T breast): > 100 µM; TGI (SNB-19 CNS): > 100 µM; TGI (PC-3 prostate): > 100 µM; TGI (NCI-H522 lung): > 100 µM; TGI (SN12C renal): > 100 µM; TGI (ACHN renal): > 100 µM; TGI (T-47D breast): > 100 µM; TGI (OVCAR-8 ovarian): > 100 µM; TGI (HL-60(TB) leukemia): > 100 µM; TGI (IGROV1 ovarian): > 100 µM; TGI (MOLT-4 leukemia): > 100 µM; TGI (OVCAR-5 ovarian): > 100 µM; TGI (HCC-2998 colon): > 100 µM; TGI (MDA-MB-231 breast): > 100 µM; TGI (BT-549 breast): > 100 µM; TGI (CAKI-1 renal): > 100 µM; TGI (SK-MEL-28 melanoma): > 100 µM; TGI (UO-31 renal): > 100 µM
